We go through 3 compounds from patent publication US20250099407A1, “2-AMINO BENZOPHENONE DERIVATIVES FOR TARGETED FERROPTOSIS INDUCTION IN CANCER THERAPY” (INDIAN INSTITUTE OF TECHNOLOGY KANPUR, priority 2023, published 2025).

Like-named read-outs stand apart in the source and are kept apart here. Some results are limits rather than exact numbers.

Format in all cases: cell-based
For assay [1], the system named is PC3. Description: Cell viability, CellTiter-Glo assay, PC3. Here is the method: (§1) The viability of screened cancer cells was recorded using a luminescence-based CellTiter-Glo® assay for the ATP quantification. The screening concentration of the molecule ranged from 100/10 μM to 45/4.5 nM with an 8-point-3-fold dilution series in DMEM media (>0.1% DMSO as control). Each experiment was conducted in more than two biological replicates with three technical replicates. The error bar is a representation of standard deviation among the technical replicates.
(§2) The viability of screened cancer cells was recorded using a luminescence-based CellTiter-Glo® assay for the ATP quantification. The screening concentration of IITK3002 ranged from 10 μM to 4.5 nM with an 8-point-3-fold dilution series in DMEM media (>0.1% DMSO as control). Each experiment was conducted in more than two biological replicates with three technical replicates. The error bar is a representation of standard deviation among the technical replicates.
(§3) a. […] In parallel, we have also synthesized the bromoacetamide (IITK3002) version of the lead molecules which is slightly more reactive with thiol nucleophiles when compared to chlorooacetamide warheads as depicted in FIG. 13. […] In addition, we also evaluated the molecules' antiproliferative potency against a panel of twelve different cancer phenotypes. The set of cancer cell lines included liver, breast, colon, myeloma, bone, blood, skin, brain and prostate lineages (FIG. 2, 3, Table 1).
In general terms: Cellular ATP, detected with luciferase, serves as a proxy for viable cell number.

The subject of assay [2] is 22Rv1. Description: Cell viability, CellTiter-Glo assay, 22Rv1. Here is the method:
as §1, §2, §3

The test system of assay [3] is A549. Description: Cell viability, A549. The conditions noted are these: Homo sapiens.
In assay [4] the test system is U2OS. Description: Cell viability, CellTiter-Glo assay, U2OS. Put shortly:
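Cell viability was measured by CellTiter-Glo ATP luminescence in DMEM, with DMSO control. The compound was tested in an 8-point 3-fold dilution series from 100 or 10 μM down to 45 or 4.5 nM. Each run had at least two biological replicates, each in technical triplicate.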

The test system of assay [5] is Huh-7 cells. Description: Combination cell viability experiments with thiols, ferroptosis modulators and cell death inhibitors in Huh-7 cells. The conditions noted are these: for cell death mechanism from combination experiments: combination with GSH, NAC, BSO, Fer-1, deferoxamine, RSL3, FIN56, Erastin, QVD-OPh, necrostatin-1, Huh-7 and 4T1; for reduction in potency by N-acetylcysteine (NAC) and GSH: 500 μM NAC or glutathione in combination; for effect of erastin addition on antiproliferative activity: Erastin 0.5 μM, relatively non-toxic concentration; for effect of apoptosis (QVD-OPh) and necrosis (Necrostatin-1) inhibitors on antiproliferative activity: QVD-OPh and Necrostatin-1 10 μM. The method, then:
FIG. 14 depicts a combination experiment indicates the involvement of thiol modulation by IITK3001/IITK3002 on the viability of Huh-7 and 4T1 cells, in accordance with an embodiment of the present invention. The viability of screened cancer cells was recorded using a luminescence-based CellTiter-Glo® assay for the ATP quantification. The screening concentration of (a) IITK3001 and (b) IITK3002 ranged from 10 uM to 4.5 nM with an 8-point-3-fold dilution series in DMEM medium (>0.1% DMSO as control). For combination experiments, 500 μM of NAC or glutathione and 25 μM of BSO were used. Each experiment was conducted in more than two biological replicates with three technical replicates. The error bar is a representation of standard deviation among the technical replicates.
(§4) FIG. 16 depicts ferroptosis induction as a cell death mechanism is established for IITK3001 using combination experiments with ferroptosis inducers and inhibitors, in accordance with an embodiment of the present invention. The screening concentration of (a) IITK3001 and (b) IITK3002 ranged from 10 μM to 4.5 nM with an 8-point-3-fold dilution series in DMEM medium (>0.1% DMSO as control). For combination experiments, Ferrostain-1 (10 μM),Deferoxamine (3 μM), RSL3 (10 nM), FIN56 (30 nM), glutamine (0.5 mM), glutamic acid (0.5 mM), Erastin (0.5 μM) were used. Each experiment was conducted in more than two biological replicates with three technical replicates. The error bar is a representation of standard deviation among the technical replicates.
as §4, with “18” for “16”, “IITK3002” for “IITK3001”, “of” for “of (a) IITK3001 and (b)”, “μM), Deferoxamine” for “μM),Deferoxamine”
FIG. 20 depicts combining apoptosis and necroptosis inhibitors ruled out the possibility of respective cell death mechanisms upon treatment with IITK3001 or IITK3002 in Huh-7 and 4T1 cells, in accordance with an embodiment of the present invention. The screening concentration of IITK3001/IITK3002 ranged from 10 μM to 4.5 nM with an 8-point-3-fold dilution series in DMEM medium (>0.1% DMSO as control). For combination experiments, QVD-OPh and Necrsotatin-1 (10 μM) were used. Each experiment was conducted in more than two biological replicates with three technical replicates. The error bar is a representation of standard deviation among the technical replicates.
FIG. 22 depicts ferroptosis induction was established for IITK3003 using combination experiments in Huh-7 cells, in accordance with an embodiment of the present invention. The screening concentration of IITK3002 ranged from 10 uM to 4.5 nM with an 8-point-3-fold dilution series in DMEM medium (>0.1% DMSO as control). For combination experiments, Ferrostain-1 ([…]), Deferoxamine (3 μM), RSL3 (10 nM), FIN56 (30 nM), glutamine (0.5 mM), glutamic acid (0.5 mM), Erastin (0.5 μM) were used. Each experiment was conducted in more than two biological replicates with three technical replicates. The error bar is a representation of standard deviation among the technical replicates.
FIG. 24 depicts ferroptosis induction was established for IITK3004 using combination experiments in Huh-7 cells, in accordance with an embodiment of the present invention. The screening concentration of the molecules (a) IITK3001 and (b) IITK3002 ranged from 10 μM to 4.5 nM with a 8-point-3-fold dilution series. […]

Where [6] appears, read: Homo sapiens, PC-3, PC3, cell viability.
Where [7] appears, read: Homo sapiens, 22Rv1, 22Rv1, cell viability.

Regarding `C#CCN(C(=O)CCl)c1ccccc1C(=O)c1ccccc1` [IITK3003, N-(2-benzoylphenyl)-2-chloro-N-(prop-2-yn-1-yl)acetamide], the EC50 (usually the concentration needed to bring the measured effect to its halfway point) in assay [1] (setting [6]) is 1110 nM; in assay [2] (setting [7]), 420 nM; in assay [3], 700 nM; in assay [4] (Homo sapiens) it was 1290 nM. The “cell death mechanism from combination experiments” value (“cell death mechanism” for short) in assay [5] is given as “exceptionally selective ferroptosis inducers”.
On to `CN(C(=O)CCl)c1ccccc1C(=O)c1ccccc1` [IITK3001, N-(2-benzoylphenyl)-2-chloro-N-methylacetamide], for which the concentration giving a half-maximal response (EC50) came out at 348 nM in assay [1] (setting [6]); 350 nM in assay [1] (PC3, cell viability); 150 nM in assay [2] (22Rv1, cell viability); 148 nM in assay [2] (setting [7]); 610 nM in assay [3]; 350 nM in assay [4]. The same compound showed an EC50 in assay [4] (Homo sapiens) of 355 nM. For the same compound, in assay [5], the “reduction in potency by N-acetylcysteine (NAC) and GSH” value is over 1000 fold. The “effect of erastin addition on antiproliferative activity” value in assay [5] was “no effect”. For the same compound, the “effect of apoptosis (QVD-OPh) and necrosis (Necrostatin-1) inhibitors on antiproliferative activity” value in assay [5] is given as “no apparent deviation”. Also, in assay [5], the “cell death mechanism” value is “ferroptosis”.
With `CN(C(=O)CBr)c1ccccc1C(=O)c1ccccc1` [IITK3002, N-(2-benzoylphenyl)-2-bromo-N-methylacetamide], the EC50 in assay [1] (setting [6]) is 193 nM; in assay [1] (PC3, cell viability) it was 190 nM; in assay [2] (setting [7]), 40 nM; in assay [3], 30 nM; in assay [4], 130 nM; in assay [4] (Homo sapiens) it was 133 nM. For the same compound, the “reduction in potency by N-acetylcysteine (NAC) and GSH” value in assay [5] is reported as over 500 fold. Also, the “effect of erastin addition on antiproliferative activity” value in assay [5] is reported as “no effect”. Moreover, the “effect of apoptosis (QVD-OPh) and necrosis (Necrostatin-1) inhibitors on antiproliferative activity” value in assay [5] is “no apparent deviation”. Besides, the “cell death mechanism” value in assay [5] is given as “ferroptosis”.
